Source: patent publication US9120784B2, “1,3,4-oxadiazoles-2-thio azetidine derivatives as sphingosine-1 phosphate receptors modulators” (Allergan, Inc., priority 2012, dated 2015)

Biological target: T1, human S1P1 receptor (Homo sapiens, UniProt P21453)
T1 construct: expressed in transfected cells; membranes used
Experiment: GTP γ35S binding assay for S1P1 activity
Assay type: biochemical
Settings: membranes of cells stably expressing the S1P1 receptor, test compound 0.08 to 5,000 nM, read-out: S1P1 EC50 (nM) % inhibition
Description: Compounds were synthesized and tested for S1P1 activity using the GTP γ^35S binding assay. These compounds may be assessed for their ability to activate or block activation of the human S1P1 receptor in cells stably expressing the S1P1 receptor.
GTP γ^35S binding was measured in the medium containing (mM) HEPES 25, pH 7.4, MgCl2 10, NaCl 100, dithiothreitol 0.5, digitonin 0.003%, 0.2 nM GTP γ^35S, and 5 μg membrane protein in a volume of 150 μl. Test compounds were included in the concentration range from 0.08 to 5,000 nM unless indicated otherwise. Membranes were incubated with 100 μM 5′-adenylylimidodiphosphate for 30 min, and subsequently with 10 μM GDP for 10 min on ice. Drug, solutions and membrane were mixed, and then reactions were initiated by adding GTP γ^35S and continued for 30 min at 25° C. Reaction mixtures were filtered over Whatman CF/B filters under vacuum, and washed three times with 3 mL of ice-cold buffer (HEPES 25, pH7.4, MgCl2 10 and NaCl 100). Filters were dried and mixed with scintillant, and counted for ^35S activity using […]. Agonist-induced GTP γ^35S binding was obtained by subtracting that in the absence of agonist. Binding data were analyzed using a non-linear regression method. In case of antagonist assay, the reaction mixture contained 10 nM […] in the presence of test antagonist at concentrations ranging from 0.08 to 5000 nM.

T1 sequence (P21453 whole entry): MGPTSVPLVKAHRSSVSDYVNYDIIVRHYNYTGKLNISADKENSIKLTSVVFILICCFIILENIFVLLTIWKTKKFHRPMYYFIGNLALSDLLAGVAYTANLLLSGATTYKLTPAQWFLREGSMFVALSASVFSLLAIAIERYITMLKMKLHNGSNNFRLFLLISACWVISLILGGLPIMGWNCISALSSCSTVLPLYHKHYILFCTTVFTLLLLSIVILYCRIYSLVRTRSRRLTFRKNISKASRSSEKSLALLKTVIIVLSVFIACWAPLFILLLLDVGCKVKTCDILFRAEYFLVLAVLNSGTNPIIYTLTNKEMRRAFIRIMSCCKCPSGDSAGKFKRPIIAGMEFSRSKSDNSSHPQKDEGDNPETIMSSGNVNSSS

Cc1ccc(-c2nnc(SC(C)c3ccc(CN4CC(C(=O)O)C4)cc3)o2)cc1C (stereo not shown) [Compound 1, 1-[4-(1-{[5-(3,4-Dimethylphenyl)-1,3,4-oxadiazol-2-yl]thio}ethyl)benzyl]azetidine-3-carboxylic acid] was tested, and the EC50 was 22.9 nM.
